The values below come from patent publication US20250281473A1, “CDK Inhibitors And Their Use As Pharmaceuticals” (PRELUDE THERAPEUTICS INCORPORATED, priority 2024, published 2025).

One assay relates to U-2932 CDX. The experiment in a line: U-2932 (DLBCL) CDX, tumor growth. Type of assay: in vivo. The source says:
(§1) See FIG. 9 (Data represented as mean±SEM. N=8, *P<0.05, **P<0.001, ***P<0.001 by Mann-Whitney U test).

The subject of assay [1] is Mino CDX model of Ibrutinib resistant MCL. The experiment in a line: Mino CDX model of Ibrutinib resistant MCL, tumor growth. The format is in vivo. The following applies: Formula (I) i.v. 15 mg/kg, QW BID q2h. The source says: Anti-tumor activity remains similar to the parental Mino model. Ibrutinib-resistance was induced through repeat in vivo passage and treatment with Ibrutinib. See FIG. 15 (Data represented as mean±SEM. N=7, *P<0.05, ****P<0.0001 by Mann-Whitney U test).

Assay [2] concerns Karpas-422 subcutaneous xenograft. The experiment in a line: Karpas-422 subcutaneous xenograft, tumor growth. Type of assay: in vivo. The following applies: Formula (I) 30 mg/kg intravenously QW, BID q2h. The source says:
(§2) See FIG. 3 (Data represented as mean±SEM. N=8, ***P<0.001, ****P<0.0001 by Mann-Whitney U test).

The test system of assay [3] is Ibrutinib-sensitive and Ibrutinib-resistant MCL cell lines. The experiment in a line: CTG assay in MCL cell lines. Type of assay: cell-based. The following applies: in vitro.
Assay [4] relates to PBMCs derived from patients with untreated or relapsed/refractory (R/R) CLL. The experiment in a line: Caspase-Glo 3/7 activity assay in CLL patient PBMCs. The format is cell-based. The following applies: 6 h treatment; ex vivo patient PBMCs.
Assay [5] has as its system DLBCL (SUDHL4, OCI-Ly-10, and TMD-8) and CLL (HG-3, JVM-3, and MEC-1) cell lines. The experiment in a line: Caspase 3/7-Glo assay in DLBCL and CLL cell lines. Type of assay: cell-based. The following applies: 6 h treatment.
Assay [6] deals with LY2264 (DLBCL) patient-derived xenografts (PDX). The experiment in a line: LY2264 (DLBCL) patient-derived xenograft, tumor growth. Type of assay: in vivo. The source says:
See FIG. 6 (Data represented as mean±SEM. N=8, *P<0.05, **P<0.001, ***P<0.001 by Mann-Whitney U test).
On the technique in general: Xenograft models place foreign cells or tissue in a host animal.

Assay [7] deals with SUDHL4 subcutaneous xenograft. The experiment in a line: SUDHL4 subcutaneous xenograft, tumor growth. The following applies: Formula (I) 30 mg/kg intravenously QW, BID q2h. The format is in vivo.
Description: as §2

The subject of assay [8] is TMD-8 subcutaneous xenograft. The experiment in a line: TMD-8 (DLBCL) cell line-derived subcutaneous xenograft, tumor growth. The format is in vivo.
Description: See FIG. 3 (Data represented as mean±SEM. N=8, ***P<0.001, ****P<0.0001 by Mann-Whitney U test). […]
as §1

On to `CC1(C)CCC(CN2CCN(c3ccc(C(=O)NS(=O)(=O)c4ccc(NCC5CCOCC5)c([N+](=O)[O-])c4)c(Oc4cnc5[nH]ccc5c4)c3)CC2)=C(c2ccc(Cl)cc2)C1` [Venetoclax, reference compound], for which, in the assay with U-2932 CDX (Venetoclax 50 mg/kg QD orally), the tumor growth inhibition is given as 37%.
Regarding `Cc1cnc(NC(=O)[C@H]2CCC[C@@H](NC(=O)CC#N)C2)cc1-c1cc(F)c2ncn(C(C)C)c2c1` [Formula (I)], the tumor growth inhibition is recorded as 37% with U-2932 CDX (Formula (I) monotherapy 7.5 mg/kg i.v. QW BID q2h); 108% in [2]; 40% in [6] (Formula (I) alone, 30 mg/kg i.v. QW, BID q2h); 125% in assay [7]; 49% in [8] (Example 1, FIG. 3, Formula (I) 7.5 mg/kg intravenously QW, BID q2h); 62% in [8] (Example 1, FIG. 3, Formula (I) 15 mg/kg intravenously QW, BID q2h). Further, the tumor growth inhibition in assay [8] (Example 1, FIG. 3, Formula (I) 30 mg/kg intravenously QW, BID q2h) stood at 83%; in assay [8] (Example 2, FIG. 5, Formula (I) monotherapy 7.5 mg/kg i.v., BID q2h QW), 46%; in assay [8] (Example 3, FIG. 9, Formula (I) monotherapy 7.5 mg/kg i.v. QW BID q2h) it was 49%. For the same compound, the “tumor growth inhibition (in words)” value in assay [1] was “significant tumor growth inhibition”. The “activity in CTG assay (in words)” value in assay [3] is “shows activity”. Also, the “induction of apoptosis (caspase 3/7)” value in assay [4] and in assay [5] was “induction of apoptosis” each time.
With `C=CC(=O)N1CCC([C@@H]2CCNc3c(C(N)=O)c(-c4ccc(Oc5ccccc5)cc4)nn32)CC1` [Zanubrutinib, reference compound], the tumor growth inhibition is listed as 64% in assay [6] (Zanubrutinib alone, 25 mg/kg QD orally) and 44% in [8] (Example 2, FIG. 5, Zanubrutinib 5 mg/kg, BID orally).
